Experiments:
Cavia porcellus [1] = species on record: Cavia porcellus; experiment: Percent stimulation of [35S]GTP-gamma-S, binding by the compound (10 uM) in guinea pig caudate membranes for unblocked condition; assay type: functional
Cavia porcellus [2] = species on record: Cavia porcellus; experiment: Percent stimulation of [35S]GTP-gamma-S, binding by the compound in guinea pig caudate membranes for unblocked condition; assay type: functional, organism-based

| SMILES | Stimulation (Cavia porcellus [1]) [%] | Stimulation (Cavia porcellus [2]) [%] |
| --- | --- | --- |
| CCN(CC)C(=O)c1ccc(N(c2cccc(OC)c2)[C@H]2C[C@H]3CC[C@@H](C2)N3CC=C(C)C)cc1 | 29 |  |
| C/C=C\CN1C2CCC1CC(N(c1ccc(C(=O)N(CC)CC)cc1)c1cccc(OC)c1)C2 (stereo not given) | 37 |  |
| C=CCN1[C@@H]2CC[C@H]1C[C@@H](N(c1ccc(C(=O)N(CC)CC)cc1)c1cccc(OC)c1)C2 | 46 |  |
| C=CCN1[C@@H]2CC[C@H]1C[C@@H](N(c1ccc(C(=O)N(CC)CC)cc1)c1cccc(O)c1)C2 | 79 |  |
| C=CCN1C[C@H](C)N([C@H](c2ccc(C(=O)N(CC)CC)cc2)c2cccc(OC)c2)C[C@H]1C |  | 102 |

Source: ChEMBL document CHEMBL1132914, “4-[(8-Alkyl-8-azabicyclo[3.2.1]octyl-3-yl)-3-arylanilino]-N,N-diethylbenzamides: high affinity, selective ligands for the delta opioid receptor illustrate factors important to antagonist activity” (Bioorg Med Chem Lett, 2000)
